Reference: patent US20100003246A1, “Novel heterocyclic compounds and uses therof” (priority 2008, published 2010)

target: T1, b-Raf(V600E) (Homo sapiens, UniProt P15056, V600E); test: Raf/Mek Amplified Luminescence Proximity Homogeneous Assay (Alpha Screen), b-Raf(V600E); format: biochemical; settings: mutant b-Raf(V600E), read-out: mut-b-RAF (IC50 in uM)
T1 construct: made in house
Method in brief: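 Active b-Raf(V600E) (~4 pM) pre-incubated 60 min at room temperature with compound and kinase-dead biotinylated Mek (~10 nM) in Tris pH 7.5, MgCl2, BSA, DTT; ATP-started reaction ran 3 h, EDTA-stopped. Phospho-MEK detected by anti-p-MEK AlphaScreen luminescence; IC50 by non-linear regression.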

T1 sequence (P15056 whole entry V600E): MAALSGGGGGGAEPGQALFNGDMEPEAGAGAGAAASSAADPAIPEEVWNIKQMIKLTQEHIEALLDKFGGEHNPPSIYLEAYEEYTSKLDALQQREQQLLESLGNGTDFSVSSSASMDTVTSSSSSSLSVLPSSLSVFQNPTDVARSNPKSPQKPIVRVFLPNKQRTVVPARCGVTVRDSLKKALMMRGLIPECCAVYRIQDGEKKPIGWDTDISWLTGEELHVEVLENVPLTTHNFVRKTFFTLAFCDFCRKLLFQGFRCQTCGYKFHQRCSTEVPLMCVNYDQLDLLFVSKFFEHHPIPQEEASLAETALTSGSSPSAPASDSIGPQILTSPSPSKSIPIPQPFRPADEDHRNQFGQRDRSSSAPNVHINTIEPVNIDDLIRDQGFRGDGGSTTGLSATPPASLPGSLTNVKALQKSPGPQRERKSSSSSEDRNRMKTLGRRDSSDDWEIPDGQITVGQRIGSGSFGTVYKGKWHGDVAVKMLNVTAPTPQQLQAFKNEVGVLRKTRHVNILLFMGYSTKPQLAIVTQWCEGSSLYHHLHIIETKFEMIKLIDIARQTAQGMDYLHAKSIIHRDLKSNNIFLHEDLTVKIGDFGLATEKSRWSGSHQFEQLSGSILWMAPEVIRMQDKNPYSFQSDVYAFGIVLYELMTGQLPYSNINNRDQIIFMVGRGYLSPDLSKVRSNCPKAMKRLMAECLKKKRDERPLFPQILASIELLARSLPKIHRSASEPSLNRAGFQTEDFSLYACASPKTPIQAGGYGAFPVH

Point of comparison: `COc1cc(-c2[nH]c(C(C)(C)C)nc2-c2ccnc(N[C@@H](C)CNC(=O)[C@@H](C)OC)n2)cnc1N` [Compound 208, (R)-N-((S)-2-(4-(5-(6-amino-5-methoxypyridin-3-yl)-2-tert-butyl-1H-imidazol-4-yl)pyrimidin-2-ylamino)propyl)-2-methoxypropanamide], IC50 0.0014 µM. Against it:
- COc1cc(-c2nc(C(C)(C)C)[nH]c2-c2ccnc(N[C@@H]3CCN(S(C)(=O)=O)C3)n2)cnc1N [Compound 203, (R)-4-(4-(6-amino-5-methoxypyridin-3-yl)-2-tert-butyl-1H-imidazol-5-yl)-N-(1-(methylsulfonyl)pyrrolidin-3-yl)pyrimidin-2-amine] — 2.5-fold higher, 0.0035 µM
- COCC(=O)NC[C@H](C)Nc1nccc(-c2nc(C(C)(C)C)[nH]c2-c2cnc(N)c(OC)c2)n1 [Compound 204, (S)-N-(2-(4-(5-(6-amino-5-methoxypyridin-3-yl)-2-tert-butyl-1H-imidazol-4-yl)pyrimidin-2-ylamino)propyl)-2-methoxyacetamide] — 1.8-fold lower, 0.0008 µM
- COCC(=O)N[C@@H](C)CNc1nccc(-c2[nH]c(C(C)(C)C)nc2-c2cnc(N)c(OC)c2)n1 [Compound 205, (S)-N-(1-(4-(4-(6-amino-5-methoxypyridin-3-yl)-2-tert-butyl-1H-imidazol-5-yl)pyrimidin-2-ylamino)propan-2-yl)-2-methoxyacetamide] — 3.5-fold lower, 0.0004 µM
- COc1cc(-c2nc(C(C)(C)C)[nH]c2-c2ccnc(NC[C@H](C)NC(=O)C(F)(F)F)n2)cnc1N [Compound 206, (S)-N-(1-(4-(4-(6-amino-5-methoxypyridin-3-yl)-2-tert-butyl-1H-imidazol-5-yl)pyrimidin-2-ylamino)propan-2-yl)-2,2,2-trifluoroacetamide] — 4.7-fold lower, 0.0003 µM
- COc1cc(-c2[nH]c(C(C)(C)C)nc2-c2ccnc(N[C@@H](C)CNC(=O)[C@H](C)OC)n2)cnc1N [Compound 207, (S)-N-((S)-2-(4-(5-(6-amino-5-methoxypyridin-3-yl)-2-tert-butyl-1H-imidazol-4-yl)pyrimidin-2-ylamino)propyl)-2-methoxypropanamide] — 11-fold higher, 0.0158 µM
- COc1cc(-c2nc(C(C)(C)C)[nH]c2-c2ccnc(NCC(C)C)n2)cnc1N [Compound 209, 4-(4-(6-amino-5-methoxypyridin-3-yl)-2-tert-butyl-1H-imidazol-5-yl)-N-isobutylpyrimidin-2-amine] — 14-fold lower, 0.0001 µM
- CNc1nccc(-c2[nH]c(C(C)(C)C)nc2-c2cnc(N)c(OC)c2)n1 [Compound 210, 4-(4-(6-amino-5-methoxypyridin-3-yl)-2-tert-butyl-1H-imidazol-5-yl)-N-methylpyrimidin-2-amine] — 14-fold lower, 0.0001 µM
- CCNc1nccc(-c2[nH]c(C(C)(C)C)nc2-c2cnc(N)c(OC)c2)n1 [Compound 211, 4-(4-(6-amino-5-methoxypyridin-3-yl)-2-tert-butyl-1H-imidazol-5-yl)-N-ethylpyrimidin-2-amine] — 14-fold lower, 0.0001 µM
- CCCNc1nccc(-c2[nH]c(C(C)(C)C)nc2-c2cnc(N)c(OC)c2)n1 [Compound 212, 4-(4-(6-amino-5-methoxypyridin-3-yl)-2-tert-butyl-1H-imidazol-5-yl)-N-propylpyrimidin-2-amine] — 14-fold lower, 0.0001 µM
- COc1cc(-c2nc(C(C)(C)C)[nH]c2-c2ccnc(NCC(F)(F)F)n2)cnc1N [Compound 213, 4-(4-(6-amino-5-methoxypyridin-3-yl)-2-tert-butyl-1H-imidazol-5-yl)-N-(2,2,2-trifluoroethyl)pyrimidin-2-amine] — 14-fold lower, 0.0001 µM
- COCC(=O)N[C@@H](C)CNc1nccc(-c2oc(-c3ccc(F)cc3)nc2-c2cnc(N)c(OC)c2)n1 [Compound 214, (S)-N-(1-(4-(4-(6-amino-5-methoxypyridin-3-yl)-2-(4-fluorophenyl)oxazol-5-yl)pyrimidin-2-ylamino)propan-2-yl)-2-methoxyacetamide] — within 1.5-fold, 0.001 µM
- COc1cc(-c2nc(C(C)(C)C)[nH]c2-c2ccnc(NCc3ccc(C(F)(F)F)cc3)n2)cnc1N [Compound 215, 4-(4-(6-amino-5-methoxypyridin-3-yl)-2-tert-butyl-1H-imidazol-5-yl)-N-(4-(trifluoromethyl)benzyl)-pyrimidin-2-amine] — 2.8-fold lower, 0.0005 µM
- COCC(=O)N[C@@H](C)CNc1nccc(-c2[nH]c(-c3ccc(C(F)(F)F)cc3F)nc2-c2cnc(N)c(OC)c2)n1 [Compound 216, (S)-N-(1-(4-(6-(6-amino-5-methoxypyridin-3-yl)-2-(2-fluoro-4-(trifluoromethyl)phenyl)-1H-imidazol-5-yl)pyrimidin-2-ylamino)propan-2-yl)-2-methoxyacetamide] — 7-fold lower, 0.0002 µM
- COCC(=O)N[C@@H](C)CNc1nccc(-c2oc(-c3ccc(F)cc3)nc2-c2cnc(N)c(OC)n2)n1 [Compound 217, (S)-N-(1-(4-(4-(5-amino-6-methoxypyrazin-2-yl)-2-(4-fluorophenyl)oxazol-5-yl)pyrimidin-2-ylamino)propan-2-yl)-2-methoxyacetamide] — within 1.5-fold, 0.002 µM
- COc1cc(-c2nc(C(C)(C)C)[nH]c2-c2ccnc(NC[C@H](C)NC(C)=O)n2)cnc1N [Compound 218, (S)-N-(1-(4-(4-(6-amino-5-methoxypyridin-3-yl)-2-tert-butyl-1H-imidazol-5-yl)pyrimidin-2-ylamino)propan-2-yl)acetamide] — 4.7-fold lower, 0.0003 µM
- CNC(=O)N[C@@H](C)CNc1nccc(-c2[nH]c(C(C)(C)C)nc2-c2cnc(N)c(OC)c2)n1 [Compound 219, (S)-1-(1-(4-(4-(6-amino-5-methoxypyridin-3-yl)-2-tert-butyl-1H-imidazol-5-yl)pyrimidin-2-ylamino)propan-2-yl)-3-methylurea] — 4.7-fold lower, 0.0003 µM
- COc1cc(-c2nc(-c3ccc(F)cc3)oc2-c2ccnc(NCC(C)C)n2)cnc1N [Compound 220, 4-(4-(6-amino-5-methoxypyridin-3-yl)-2-(4-fluorophenyl)oxazol-5-yl)-N-isobutylpyrimidin-2-amine] — within 1.5-fold, 0.002 µM
- COc1cc(-c2nc(C(C)(C)C)[nH]c2-c2ccnc(Nc3ccc(C(F)(F)F)cc3)n2)cnc1N [Compound 221, 4-(4-(6-amino-5-methoxypyridin-3-yl)-2-tert-butyl-1H-imidazol-5-yl)-N-(4-(trifluoromethyl)phenyl)-pyrimidin-2-amine] — 7-fold lower, 0.0002 µM
- COc1cc(-c2nc(C(C)(C)C)[nH]c2-c2ccnc(Nc3ccc(Cl)c(C(F)(F)F)c3)n2)cnc1N [Compound 222, 4-(4-(6-amino-5-methoxypyridin-3-yl)-2-tert-butyl-1H-imidazol-5-yl)-N-(4-chloro-3-(trifluoromethyl)phenyl) pyrimidin-2-amine] — 7-fold lower, 0.0002 µM
- COc1nc(-c2nc(-c3ccc(C(F)(F)F)cc3)oc2-c2ccnc(NCC(C)C)n2)cnc1N [Compound 223, 4-(4-(5-amino-6-methoxypyrazin-2-yl)-2-(4-(trifluoromethyl)phenyl)oxazol-5-yl)-N-isobutylpyrimidin-2-amine] — 7.9-fold higher, 0.011 µM
- COc1cc(-c2nc(-c3ccc(C(F)(F)F)cc3)oc2-c2ccnc(NCC(C)C)n2)cnc1N [Compound 224, 4-(4-(6-amino-5-methoxypyridin-3-yl)-2-(4-(trifluoromethyl)phenyl)oxazol-5-yl)-N-isobutylpyrimidin-2-amine] — 10-fold higher, 0.014 µM
- COc1cc(-c2nc(C(C)(C)C)[nH]c2-c2ccnc(NC[C@H](C)NC(=O)[C@@H](C)OC)n2)cnc1N [Compound 225, (R)-N-((S)-1-(4-(4-(6-amino-5-methoxypyridin-3-yl)-2-tert-butyl-1H-imidazol-5-yl)pyrimidin-2-ylamino)propan-2-yl)-2-methoxypropanamide] — within 1.5-fold, 0.0013 µM
- COCC(=O)N[C@@H](C)CNc1nccc(-c2[nH]c(C(C)C)nc2-c2cnc(N)c(OC)c2)n1 [Compound 226, (S)-N-(1-(4-(4-(6-amino-5-methoxypyridin-3-yl)-2-isopropyl-1H-imidazol-5-yl)pyrimidin-2-ylamino)propan-2-yl)-2-methoxyacetamide] — 4.7-fold lower, 0.0003 µM
- COCC(=O)N[C@@H](C)CNc1nccc(-c2[nH]c(C(C)C)nc2-c2cnc(N)c(OC)n2)n1 [Compound 227, (S)-N-(1-(4-(4-(5-amino-6-methoxypyrazin-2-yl)-2-isopropyl-1H-imidazol-5-yl)pyrimidin-2-ylamino)propan-2-yl)-2-methoxyacetamide] — 4.7-fold lower, 0.0003 µM
- COc1cc(-c2nc(C(C)(C)C)n(C)c2-c2ccnc(NCC(C)C)n2)cnc1N [Compound 228, 4-(4-(6-amino-5-methoxypyridin-3-yl)-2-tert-butyl-1-methyl-1H-imidazol-5-yl)-N-isobutylpyrimidin-2-amine] — 2.3-fold lower, 0.0006 µM
- COCC(=O)N[C@@H](C)CNc1nccc(-c2oc(-c3ccc(C(F)(F)F)cc3)nc2-c2cnc(N)c(OC)n2)n1 [Compound 229, (S)-N-(1-(4-(4-(5-amino-6-methoxypyrazin-2-yl)-2-(4-(trifluoromethyl)phenyl)-oxazol-5-yl)pyrimidin-2-ylamino)propan-2-yl)-2-methoxyacetamide] — 2.1-fold higher, 0.003 µM
- COc1cc(Nc2nccc(-c3[nH]c(C(C)(C)C)nc3-c3cnc(N)c(OC)c3)n2)ccn1 [Compound 230, 4-(4-(6-amino-5-methoxypyridin-3-yl)-2-tert-butyl-1H-imidazol-5-yl)-N-(2-methoxypyridin-4-yl)pyrimidin-2-amine] — 14-fold lower, 0.0001 µM
- COc1cc(Nc2nccc(-c3[nH]c(C(C)C)nc3-c3cnc(N)c(OC)c3)n2)ccn1 [Compound 231, 4-(4-(6-amino-5-methoxypyridin-3-yl)-2-isopropyl-1H-imidazol-5-yl)-N-(2-methoxypyridin-4-yl)pyrimidin-2-amine] — 7-fold lower, 0.0002 µM
- COc1cc(-c2nc(-c3ccc(C(F)(F)F)cc3)oc2-c2ccnc(NCC(C)C)c2)cnc1N [Compound 232, 4-(4-(6-amino-5-methoxypyridin-3-yl)-2-(4-(trifluoromethyl)phenyl)-oxazol-5-yl)-N-isobutylpyridin-2-amine] — 6-fold higher, 0.0084 µM
- COc1cc(Nc2nccc(-c3[nH]c(C(C)(C)C)nc3-c3cnc4[nH]cc(Cl)c4c3)n2)ccn1 [Compound 233, 4-(2-tert-butyl-4-(3-chloro-1H-pyrrolo[2,3-b]pyridin-5-yl)-1H-imidazol-5-yl)-N-(2-methoxypyridin-4-yl)pyrimidin-2-amine] — 4.7-fold lower, 0.0003 µM
